Assay results from article PMC12766724, “Synthesis, Anthelmintic Activity, and Mechanism of Action of 5‑Aryl‑1H‑indoles” (Journal of Agricultural and Food Chemistry, 2025).

What was measured:
[1] = system: C. elegans CB211 lev-1(e211) IV.; assay: Chitinase assay (reproductive capacity); assay type: in vivo; conditions: Caenorhabditis elegans; levamisole-resistant strain
Method: (§1) C. elegans strains used in this study were N2 (wild-type), levamisole-resistant strains ZZ15 (lev-8(x15) X) and […] (lev-1(e211) IV), ivermectin-resistant strain DA1316 (avr-14(ad1305) I; avr-15(vu227) glc-1(pk54) V), mebendazole-resistant strain […] (ben-1(e1880) III), and three strains with mutations in succinate dehydrogenase, RP2699, RP2700, and RP2702. The worms were cultivated on Nematode Growth Medium agar plates seeded with Escherichia coli OP50 in 20 °C according to the standard cultivation protocols. Strains RP2699, RP2700, and RP2702 were generated by Prof. Peter Roy’s group. All other strains and bacteria were purchased from the Caenorhabditis Genetics Center (CGC, Minneapolis, MN).
(§2) The effect of compounds on C. elegans was evaluated using the Chitinase assay as we described previously.
(§3) Lastly, strain DA1316 has mutations in three genes encoding subunits of the glutamate-gated chloride channel and is highly resistant to avermectins.

[2] = system: C. elegans DA1316 avr-14(ad1305) I; avr-15(vu227) glc-1(pk54) V.; assay: Chitinase assay (reproductive capacity); assay type: in vivo; conditions: Caenorhabditis elegans; ivermectin-resistant strain
Method: as §1, §2, §3

[3] = system: C. elegans ZZ15 lev-8(x15) X.; assay: Chitinase assay (reproductive capacity); assay type: in vivo; conditions: Caenorhabditis elegans; levamisole-resistant strain
Method: as §1, §2, §3

[4] = system: C. elegans CB3474 ben-1(e1880) III.; assay: Chitinase assay (reproductive capacity); assay type: in vivo; conditions: Caenorhabditis elegans; mebendazole-resistant strain
Method: as §1, §2, §3

[5] = system: Skin fibroblasts (BJ); assay: Resazurin assay, 3-day treatment; assay type: cell-based, human; conditions: for Average viability (signal intensity relative to control): BJ
[6] = system: Arabidopsis thaliana Col-0; assay: Germination rate and phytotoxicity; assay type: in vivo; conditions: for average fraction of germinated seeds: 5 DPS; for main root length / plant weight: 10 DPS
In short: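 Sterilized Col-0 seeds sown on 1/2 MS with compounds at 5, 10, 50 and 100 μM in 0.3% DMSO (DMSO mock), grown under 16 h light/8 h dark at 22 °C/20 °C. Germination rate scored at day 5; primary root length and seedling weight after further 5 days.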

[7] = system: Heterodera schachtii second-stage juveniles (J2); assay: Motility on WMicrotracker ONE; assay type: in vivo
In short: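 Second-stage juveniles of H. schachtii, reared on in vitro mustard roots on modified KNOP medium, were exposed to compounds in microtiter wells. Motility was scored as activity counts, i.e. interruptions of infrared microbeams passing through each well.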

[8] = system: C. elegans N2 wild-type; assay: Chitinase assay (reproductive capacity); assay type: in vivo, Caenorhabditis elegans; conditions: Caenorhabditis elegans
In short: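 Wild-type N2 L1 larvae were exposed to compounds for 4 days, then populations were examined microscopically and Chitinase activity, released at hatching, was measured as a read-out of reproduction. Failure from acute or reproductive toxicity or developmental defects is detected.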

[9] = 10 µM group, initial (prior to the treatment)
[10] = 50 µM group, initial (prior to the treatment)
[11] = 100 µM group, initial (prior to the treatment)

Row | Structure (SMILES) | IC50 [1] | IC50 [2] | IC50 [3] | IC50 [4] | Average viability (signal intensity relative to control) ([5]; 10 µM) | Average viability (signal intensity relative to control) ([5]; 20 µM) | Average viability (signal intensity relative to control) ([5]; 40 µM) | average fraction of germinated seeds ([6]; 5 µM) | main root length ([6]; 5 µM) | plant weight ([6]; 5 µM) | average fraction of germinated seeds ([6]; 10 µM) | main root length ([6]; 10 µM) | plant weight ([6]; 10 µM) | average fraction of germinated seeds ([6]; 50 µM) | main root length ([6]; 50 µM) | plant weight ([6]; 50 µM) | average fraction of germinated seeds ([6]; 100 µM) | main root length ([6]; 100 µM) | plant weight ([6]; 100 µM) | average activity counts [7, 9] | also measured
1 | Clc1ccc(-c2ccc3[nH]ccc3c2)cc1 [i-19] | 6.8 ± 1.95 µM | 5.15 ± 1.01 µM | 5.92 ± 0.39 µM | 6.61 ± 0.85 µM | 0.98 ± 0.02 | 1.02 ± 0.06 | 1 ± 0.03 | 0.93 | 38.83 mm | 32.28 mg | 0.96 | 37.74 mm | 30.72 mg | 0.97 | 33.27 mm | 24.85 mg | 0.93 | 19.96 mm | 15.22 mg | 190 | effect on the viability of fibroblasts ([5]; up to 40 μM): no effect; average activity counts ([7]; 10 µM, 48 h): 179; average activity counts ([7]; 10 µM, 72 h): 192; average activity counts [7, 10]: 183; average activity counts ([7]; 50 µM, 48 h): 90; average activity counts ([7]; 50 µM, 72 h): 18; average activity counts [7, 11]: 195; average activity counts ([7]; 100 µM, 48 h): 121; average activity counts ([7]; 100 µM, 72 h): 30; decrease in mean activity counts ([7]; 100 µM, 72 h): 85%; IC50 [8]: 6.67 ± 0.6 µM
2 | Fc1ccc(-c2ccc3[nH]ccc3c2)cc1 [i-20] | 9.02 ± 0.75 µM | 10.4 ± 1.09 µM | 11 ± 0.51 µM | 9.97 ± 1.06 µM | 0.96 ± 0.01 | 0.98 ± 0.02 | 0.96 ± 0.03 | 0.96 | 39.53 mm | 30.62 mg | 0.91 | 34.00 mm | 27.14 mg | 0.96 | 31.49 mm | 24.67 mg | 0.95 | 25.82 mm | 16.94 mg | 165 | average activity counts ([7]; 10 µM, 48 h): 169; average activity counts ([7]; 10 µM, 72 h): 176; average activity counts [7, 10]: 174; average activity counts ([7]; 50 µM, 48 h): 81; average activity counts ([7]; 50 µM, 72 h): 27; average activity counts [7, 11]: 180; average activity counts ([7]; 100 µM, 48 h): 4; average activity counts ([7]; 100 µM, 72 h): 5; decrease in mean activity counts ([7]; 100 µM, 72 h): 97%; IC50 [8]: 9.05 ± 0.62 µM
3 | FC(F)(F)Oc1ccc(-c2ccc3[nH]ccc3c2)cc1 [i-21] | 10.1 ± 0.39 µM | 10.4 ± 0.41 µM | 10.6 ± 0.48 µM | 9.01 ± 0.78 µM | 0.94 ± 0.02 | 0.96 ± 0.04 | 0.87 ± 0.03 | 0.98 | 41.56 mm | 34.37 mg | 1.00 | 42.21 mm | 36.56 mg | 1.00 | 35.82 mm | 24.65 mg | 0.96 | 30.90 mm | 21.97 mg | 175 | average activity counts ([7]; 10 µM, 48 h): 170; average activity counts ([7]; 10 µM, 72 h): 146; average activity counts [7, 10]: 177; average activity counts ([7]; 50 µM, 48 h): 142; average activity counts ([7]; 50 µM, 72 h): 102; average activity counts [7, 11]: 187; average activity counts ([7]; 100 µM, 48 h): 150; average activity counts ([7]; 100 µM, 72 h): 104; IC50 [8]: 8.58 ± 0.99 µM
